17 compounds from patent US8252793B2, “Bradykinin receptor agonists and uses thereof to treat ocular hypertension and glaucoma” (Alcon Research, Ltd., priority 2010, dated 2012) can be followed below.

Experiment [1] deals with T1, BK receptors in human ciliary muscle cells (h-CM) (Homo sapiens, UniProt P30411).
T1 construct: h-CM cells expressing BK receptors were seeded; endogenous in cells; host or cells: human ciliary muscle (h-CM) cells
T1 sequence (P30411 1-391): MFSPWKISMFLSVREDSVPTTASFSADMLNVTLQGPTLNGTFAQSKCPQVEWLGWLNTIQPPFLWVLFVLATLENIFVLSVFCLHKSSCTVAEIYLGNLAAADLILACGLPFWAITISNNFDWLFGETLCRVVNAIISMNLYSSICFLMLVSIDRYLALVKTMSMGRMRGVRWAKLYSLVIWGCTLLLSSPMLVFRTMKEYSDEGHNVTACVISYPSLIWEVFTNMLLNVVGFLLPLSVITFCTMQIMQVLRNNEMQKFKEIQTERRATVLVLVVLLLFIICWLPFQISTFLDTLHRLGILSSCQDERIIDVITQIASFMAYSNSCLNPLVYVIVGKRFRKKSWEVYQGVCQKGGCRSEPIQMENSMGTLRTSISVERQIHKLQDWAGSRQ
As to the kind of experiment: Functional assay measuring [Ca2+]i mobilization (FLIPR) in h-CM cells. Type of experiment: cell-based. To be noted: class symbols (in μM), read-out: CaM (EC50). The procedure: On the day of the experiment, media was removed, cells were rinsed and 50 μL of serum-free media added. One vial of FLIPR Calcium Assay Kit dye was reconstituted in 50 mL of a FLIPR buffer consisting of Hank's Balanced Salt Solution (HBSS), 20 mM HEPES, and 2.5 mM probenecid, pH 7.4. Cells were loaded with the calcium-sensitive dye by addition of an equal volume (50 μL) to each well of the 96-well plate and incubated with dye for 1 h at 23° C. […] After this time, the test compound plate and cell plate were placed in a Fluorescence Imaging Plate Reader (FLIPR-Tetra®) instrument (Molecular Devices/MDSPharma, Sunnyvale, Calif.). At the beginning of an experimental run, a signal test was performed to check the basal fluorescence signal from the dye-loaded cells and the uniformity of the signal across the plate. […] An aliquot (25 μL) of the test compound was added to the existing 100 μL dye-loaded cells at a dispensing speed of 50 μL/sec. Intracellular calcium mobilization was measured by monitoring real-time changes in cellular fluorescence upon test compound addition. Fluorescence data were collected in real-time at 1.0 sec intervals for the first 60 seconds and at 6.0 second intervals for an additional 120 seconds. Baseline fluorescence readings were normalized across the plate and background-corrected from negative control wells. […] EC50 values were determined by 4-parameter nonlinear curve fitting of the concentration-response curve. Calibration of the instrument was performed using manufacturer's standard procedures.

The test system of experiment [2] is primary human ciliary muscle cells (h-CM). Description: Total prostaglandin (PG) release from primary h-CM cells (EIA). Type of experiment: cell-based. To be noted: 1 hour at 37° C., class symbols (in μM). How it is done: BK agonist compounds of Formula 1 were evaluated for the ability to induce prostaglandin (PG) release from primary human ciliary muscle cells (h-CM). Briefly, h-CM cells were grown to confluence in FNC-coated 24-well culture plates and serum-starved (0.8% FBS) for 24 hours prior to the experiment. Cells were stimulated with a 9-pt concentration-response (0.1 nM-10 μM) of bradykinin or BK agonist for 1 hour at 37° C. with subsequent sample recovery and processing for total PG measurement. Total PG measurement was determined using a total Prostaglandin Screening EIA kit (cat#514012) purchased from Cayman Chemical (Ann Arbor, Mich.). The assay was conducted according to the package insert from the manufacturer.

The target in experiment [3] is T2, recombinant human bradykinin B2 receptor (Homo sapiens, UniProt P30411).
T2 construct: expressed in transfected cells; host or cells: Chinese hamster ovary (CHO) cells, membrane homogenates
T2 sequence (P30411 1-391): T1 sequence (P30411 1-391)
As to the kind of experiment: [3H]-BK competition radioligand binding to human cloned B2 receptor (CHO cell membranes). To be noted: 0.2 nM [3H]-bradykinin, CHO membranes, 60 min 23° C.; mean ± SEM or single value; Ki from IC50 by Cheng-Prusoff; read-out: [3H]-BK Binding to Human Cloned B2 Receptor (Ki). How it is done:
Chinese hamster ovary (CHO) cell membrane homogenates (2.5 μg protein) expressing the recombinant human bradykinin B2 receptor were incubated for 60 min at 23° C. with 0.2 nM [^3H]-bradykinin (95.5 Ci/mmole, PerkinElmer) in the absence or presence of the test compound in a buffer containing 50 mM Tris/HCl (pH 7.4), 0.2 g/L 1-10-phenanthroline and 0.1% BSA. All reagent and test compound additions to the assay plates were made using Biomek 3000 robotic workstations (Beckman Instruments, Fullerton, Calif.). Nonspecific binding was determined in the presence of 1 μM unlabeled bradykinin. Following the incubation, the assay was terminated by rapid filtration under vacuum through glass fiber filters (GF/C, PerkinElmer) presoaked with 0.3% polyethyleneimine and rinsed several times with an ice-cold 50 mM Tris-HCl buffer using a 96-sample cell harvester (Tomtec). The filters were air-dried and the radioactivity counted in a beta-scintillation counter (Topcount, PerkinElmer) using a scintillation cocktail (Microscint 20, PerkinElmer) (Sharif and Whiting, Neurochem. Int. 18: 89-96, 1991). Competitive binding inhibition curves were generated using a 7-point concentration—response of test compound in duplicate. Bradykinin peptide was also tested as an internal control in the assay. The data were analyzed using nonlinear, iterative curve-fitting to obtain the potency and intrinsic activities of the test agents as previously described (Sharif et al. J. Pharmacol. Exp. Ther. 286: 1094-1102, 1998; Sharif et al. Invest Ophthalmol. Vis. Sci. 39:2562-2571, 1998; Kelly et al. J. Pharmacol. Exp. Ther. 304: 238-245, 2003). Determined IC50 values were converted to Ki values using the standard Cheng-Prusoff equation.

As usually defined, the EC50 is the concentration at which the effect is half-maximal. Take `CNC(=O)C1CCN(CC(=O)NCC(=O)N(C)c2ccc(Cl)c(COc3cccc4c3nc(OC)n4Cc3ccccn3)c2Cl)CC1` [Compound 13, 1-(2-((2-((2,4-dichloro-3-(((2-methoxy-1-(pyridin-2-ylmethyl)-1H-benzo[d]imidazol-4-yl)oxy)methyl)phenyl)(methyl)amino)-2-oxoethyl)amino)-2-oxoethyl)-N-methylpiperidine-4-carboxamide]: the EC50 in experiment [1] was 0.1 to 1 µM; in experiment [2] (Homo sapiens, 1 h), greater than 1 µM.

Broadly, the Ki is the dissociation constant of the complex between target and ligand, obtained from inhibition or displacement. Regarding `CNC(=O)C1=NCC(CCC(=O)NCC(=O)N(C)c2ccc(Cl)c(COc3cccc4c3nc(OC)n4Cc3ccccn3)c2Cl)CN1` (stereo not shown) [Compound 41, 5-(3-((2-((2,4-dichloro-3-(((2-methoxy-1-(pyridin-2-ylmethyl)-1H-benzo[d]imidazol-4-yl)oxy)methyl)phenyl)(methyl)amino)-2-oxoethyl)amino)-3-oxopropyl)-N-methyl-1,4,5,6-tetrahydropyrimidine-2-carboxamide], the EC50 was less than 0.1 µM in experiment [1] and 0.1 to 1 µM in experiment [2] (Homo sapiens, 1 h). Further, in experiment [3], the Ki is 300 nM.

As for `CNC(=O)c1ccc(CCC(=O)NCC(=O)N(C)c2ccc(Cl)c(COc3cccc4c(OCc5ccccc5F)cc(C)nc34)c2Cl)cn1` [Compound 47, 5-(3-((2-((2,4-dichloro-3-(((4-((2-fluorobenzyl)oxy)-2-methylquinolin-8-yl)oxy)methyl)phenyl)(methyl)amino)-2-oxoethyl)amino)-3-oxopropyl)-N-methylpicolinamide], the EC50 in experiment [1] is 0.1 to 1 µM; in experiment [2] (Homo sapiens, 1 h), less than 0.1 µM.

Turning to `CC(=O)Nc1ccc(CCC(=O)NCC(=O)N(C)c2ccc(Cl)c(COc3cccc4c(OCc5ccccn5)cc(C)nc34)c2Cl)cc1` [Compound 28, 3-(4-acetamidophenyl)-N-(2-((2,4-dichloro-3-(((2-methyl-4-(pyridin-2-ylmethoxy)quinolin-8-yl)oxy)methyl)phenyl)(methyl)amino)-2-oxoethyl)propanamide], the half-maximal effective concentration (EC50) in experiment [1] is 0.1 to 1 µM; in experiment [2] (Homo sapiens, 1 h), less than 0.1 µM. For the same compound, the inhibitory constant (Ki) in experiment [3] stood at 3 nM.

With `COc1nc2c(OCc3c(Cl)ccc(N(C)C(=O)CNC(=O)COc4cnc(NC(C)=O)nc4)c3Cl)cccc2n1Cc1ccccn1` [Compound 75], the half-maximal effective concentration (EC50) in experiment [1] is less than 0.1 µM; in experiment [2] (Homo sapiens, 1 h), 0.1 to 1 µM. For the same compound, the Ki in experiment [3] is 544 nM.

In the case of “4-(3-((2-((2,4-dichloro-3-(((2-methyl-4-(pyridin-2-ylmethoxy)quinolin-8-yl)oxy)methyl)phenyl)(methyl)amino)-2-oxoethyl)amino)-3-oxopropyl)-N-methylbenzamide [Compound 31]”, the 50% effective concentration (EC50) was less than 0.1 µM in experiment [1] and 0.1 to 1 µM in experiment [2].

`CNC(=O)c1ccc(CCC(=O)NCC(=O)N(C)c2ccc(Cl)c(COc3cccc4c3nc(OC)n4Cc3cn(C)cn3)c2Cl)cc1` [Compound 78, 4-(3-((2-((2,4-dichloro-3-(((2-methoxy-1-((1-methyl-1H-imidazol-4-yl)methyl)-1H-benzo[d]imidazol-4-yl)oxy)methyl)phenyl)(methyl)amino)-2-oxoethyl)amino)-3-oxopropyl)-N-methylbenzamide]: the EC50 is less than 0.1 µM in experiment [1] and less than 0.1 µM in experiment [2] (Homo sapiens, 1 h).

With `CNC(=O)c1ccc(CCC(=O)NCC(=O)N(C)c2ccc(Cl)c(COc3cccc4c3nc(OC)n4Cc3cn(C)cn3)c2Cl)cn1` [Compound 86], the concentration giving a half-maximal response (EC50) in experiment [1] was less than 0.1 µM; in experiment [2] (Homo sapiens, 1 h), less than 0.1 µM.

Take `CCOC(=O)COc1cc(C)nc2c(OCc3c(Cl)ccc(N(C)C(=O)CNC(=O)CCc4ccc(C(=O)NC)nc4)c3Cl)cccc12` [Compound 46, ethyl 2-((8-((2,6-dichloro-3-(N-methyl-2-(3-(6-(methylcarbamoyl)pyridin-3-yl)propanamido)acetamido)benzyl)oxy)-2-methylquinolin-4-yl)oxy)acetate]: the EC50 in experiment [1] is 0.1 to 1 µM; in experiment [2] (Homo sapiens, 1 h) it was less than 0.1 µM.

Take `COc1nc2c(OCc3c(Cl)ccc(N(C)C(=O)CNC(=O)CN4CCC(NC(C)=O)C4)c3Cl)cccc2n1Cc1ccccn1` (stereo not shown) [Compound 66]: the EC50 in experiment [1] is less than 0.1 µM; in experiment [2] (Homo sapiens, 1 h), 0.1 to 1 µM.

Turning to `CNC(=O)c1ccc(CCC(=O)NCC(=O)N(C)c2ccc(Cl)c(COc3cccc4c3nc(OC)n4Cc3ccccn3)c2Cl)nc1` [Compound 43, 6-(3-((2-((2,4-dichloro-3-(((2-methoxy-1-(pyridin-2-ylmethyl)-1H-benzo[d]imidazol-4-yl)oxy)methyl)phenyl)(methyl)amino)-2-oxoethyl)amino)-3-oxopropyl)-N-methylnicotinamide], the 50% effective concentration (EC50) in experiment [1] is less than 0.1 µM; in experiment [2] (Homo sapiens, 1 h), less than 0.1 µM.

For `CNC(=O)c1ccc(CCC(=O)NCC(=O)N(C)c2ccc(Cl)c(COc3cccc4c(OCc5cn(C)cn5)cc(C)nc34)c2Cl)cn1` [Compound 48, 5-(3-((2-((2,4-dichloro-3-(((2-methyl-4-((1-methyl-1H-imidazol-4-yl)methoxy)quinolin-8-yl)oxy)methyl)phenyl)(methyl)amino)-2-oxoethyl)amino)-3-oxopropyl)-N-methylpicolinamide], the half-maximal effective concentration (EC50) in experiment [1] was less than 0.1 µM; in experiment [2] (Homo sapiens, 1 h) it was 0.1 to 1 µM.

For the compound `COc1nc2c(OCc3c(Cl)ccc(N(C)C(=O)CNC(=O)CCc4ccc(C(=O)NCCO)nc4)c3Cl)cccc2n1Cc1cn(C)cn1` [Compound 85], the EC50 in experiment [1] was less than 0.1 µM; in experiment [2] (Homo sapiens, 1 h) it was less than 0.1 µM.

In the case of `COc1nc2c(OCc3c(Cl)ccc(N(C)C(=O)CNC(=O)CCCN4CCNC(=O)C4)c3Cl)cccc2n1Cc1ccccn1` [Compound 72], the concentration for a half-maximal effect (EC50) in experiment [1] is less than 0.1 µM; in experiment [2] (Homo sapiens, 1 h), greater than 1 µM.

Consider “5-(3-((2-((2,4-dichloro-3-(((2-methyl-4-((pyridin-2-ylmethyl)amino)quinolin-8-yl)oxy)methyl)phenyl)(methyl)amino)-2-oxoethyl)amino)-3-oxopropyl)-N-methylpicolinamide [Compound 49]”, for which the half-maximal effective concentration (EC50) in experiment [1] and in experiment [2] was 0.1 to 1 µM each time.

Turning to `COc1nc2c(OCc3c(Cl)ccc(N(C)C(=O)CNC(=O)CCc4ccc(N)nc4)c3Cl)cccc2n1Cc1ccccn1` [Compound 67], the EC50 was less than 0.1 µM in experiment [1] and greater than 1 µM in experiment [2] (Homo sapiens, 1 h).

Consider `CNC(=O)c1ccc(CCC(=O)NCC(=O)N(C)c2ccc(Cl)c(COc3cccc4c(OCc5cn(C)cn5)cc(C)nc34)c2Cl)cn1` [Compound 87], for which the half-maximal effective concentration (EC50) in experiment [1] is 0.1 to 1 µM; in experiment [2] it was less than 0.1 µM.
